Each block holds one compound with its values, some of them ahead of it.
Key:
[1] = Stability in mouse liver S9 fraction assessed as extraction ratio at 3 uM measured upto 45 mins in presence of NADPH and UDPGA by LC-MS/MS analysis; type: ADME, subcellular
[2] = Stability in mouse liver S9 fraction assessed as half life at 3 uM measured upto 45 mins in presence of NADPH and UDPGA by LC-MS/MS analysis; type: ADME, subcellular
[3] = Drug uptake in po dosed CD-1 mouse xenografted with human HL-60 cells administered twice daily for 4 weeks and measured 1 to 8 hrs after post last dose; type: ADME, organism-based; settings: in vivo, 672 h
[4] = Dose normalized AUC (0 to 8 hrs) in CD-1 mouse at 60 mg/kg, po administered as repeated dose measured at day 4 by LC-MS/MS analysis; type: ADME, organism-based; settings: in vivo, 96 h, time 4 day
[5] = Observed clearance in CD-1 mouse at 3 mg/kg, po administered as single dose measured over 24 hrs by LC-MS/MS analysis; type: ADME, organism-based; settings: in vivo
[6] = Dose normalized AUC (0 to 8 hrs) in CD-1 mouse at 60 mg/kg, po administered as repeated dose measured at day 1 by LC-MS/MS analysis; type: ADME, organism-based; settings: in vivo, 24 h, time 1 day
[7] = Apparent permeability of compound in human Caco2 cells at 10 uM incubated for 120 mins by LC-MS/MS analysis; type: ADME, cell-based; settings: Caco-2
[8] = Dose normalized Cmax in CD-1 mouse at 60 mg/kg, po administered as repeated dose measured at day 1 by LC-MS/MS analysis; type: ADME, organism-based; settings: in vivo, 24 h, time 1 day
[9] = AUC(0 to 8 hrs) in CD-1 mouse at 60 mg/kg, po administered as repeated dose measured at day 4 by LC-MS/MS analysis; type: ADME, organism-based; parameters: route oral, time 4 day, dose 60 mg/kg; settings: in vivo
[10] = AUC(0 to 8 hrs) in CD-1 mouse at 3 mg/kg, po administered as single dose measured over 24 hrs by LC-MS/MS analysis; type: ADME, organism-based; parameters: route oral, time 24 hrs, dose 3 mg/kg; settings: in vivo
[11] = Elimination half-life in CD-1 mouse at 60 mg/kg, po administered as repeated dose measured at day 4 by LC-MS/MS analysis; type: ADME, organism-based; settings: in vivo, time 4 day, read-out: beta t1/2 (converted)
[12] = Dose normalized Cmax in CD-1 mouse at 3 mg/kg, po administered as single dose measured over 24 hrs by LC-MS/MS analysis; type: ADME, organism-based; settings: in vivo
[13] = Cmax in CD-1 mouse at 60 mg/kg, po administered as repeated dose measured at day 4 by LC-MS/MS analysis; type: ADME, organism-based; parameters: route oral, dose 60 mg/kg, time 4 day; settings: in vivo
[14] = Cmax in CD-1 mouse at 60 mg/kg, po administered as repeated dose measured at day 1 by LC-MS/MS analysis; type: ADME, organism-based; parameters: route oral, time 1 day, dose 60 mg/kg; settings: in vivo
[15] = Dose normalized AUC (0 to 8 hrs) in CD-1 mouse at 3 mg/kg, po administered as single dose measured over 24 hrs by LC-MS/MS analysis; type: ADME, organism-based; settings: in vivo
[16] = AUC(0 to 8 hrs) in CD-1 mouse at 60 mg/kg, po administered as repeated dose measured at day 1 by LC-MS/MS analysis; type: ADME, organism-based; parameters: route oral, dose 60 mg/kg, time 1 day; settings: in vivo
[17] = Dose normalized Cmax in CD-1 mouse at 60 mg/kg, po administered as repeated dose measured at day 4 by LC-MS/MS analysis; type: ADME, organism-based; settings: in vivo, 96 h, time 4 day

ERH [1]: 0.09
SMILES: Cc1cc(F)ccc1-c1cc2c(cn1)ncn2-c1ccc(OC(F)F)nc1

ERH [1]: 0.02
SMILES: Cc1cc(C#N)ccc1-c1cc2c(cn1)ncn2-c1ccc(OC(F)F)cc1

half-life at […], 3 µM [2]: 0.7 h
SMILES: COc1ccc(Cn2cnc3cnc(Nc4cccc(NC(C)=O)c4)cc32)cc1OC

Drug uptake [3]: Dose-Dependent Effect
AUC/dose [4]: 154 ng·h/mL per mg/kg
CL/F [5]: 129 mL/min/kg
AUC/dose [6]: 164 ng·h/mL per mg/kg
Papp at 2 h, 10 µM [7]: 14 ×10⁻⁶ cm/s
Cmax/dose [8]: 37 ng/mL
AUC at 96 h [9]: 9220 ng·h/mL
AUC(0-t) at 24 h [10]: 363 ng·h/mL
half-life [11]: 8.1 h
Cmax/dose [12]: 43 ng/mL
Cmax [13]: 2680 ng/mL
Cmax [14]: 2210 ng/mL
AUC/dose [15]: 121 ng·h/mL per mg/kg
AUC(0-t) at 24 h [16]: 9860 ng·h/mL
Cmax/dose [17]: 45 ng/mL
SMILES: Cc1cc(F)ccc1-c1cc2c(cn1)ncn2-c1ccc(OC(F)F)cc1

Reference: ChEMBL document CHEMBL4840350 (J Med Chem, 2021)
